Measured values as given in ChEMBL document CHEMBL5209573, “Fluo-8 based assay for SLC24A2 using HEK293 SLC24A2 JumpIn OE cells” (2022).

Molecular target: Sodium/potassium/calcium exchanger 2 (Homo sapiens, UniProt Q9UI40)
Assay: Substrate uptake by the Sodium/Potassium/Calcium Exchanger 2 (NCKX2, SLC24A2) as assessed by Screen Questtrade mark Fluo-8 NW calcium assay kit in HEK-293 JumpIN-SLC24A2 cells (PubChem AID: 1794815)
Type: functional, cell-based, HEK293

Sequence of Sodium/potassium/calcium exchanger 2 (Q9UI40 whole entry): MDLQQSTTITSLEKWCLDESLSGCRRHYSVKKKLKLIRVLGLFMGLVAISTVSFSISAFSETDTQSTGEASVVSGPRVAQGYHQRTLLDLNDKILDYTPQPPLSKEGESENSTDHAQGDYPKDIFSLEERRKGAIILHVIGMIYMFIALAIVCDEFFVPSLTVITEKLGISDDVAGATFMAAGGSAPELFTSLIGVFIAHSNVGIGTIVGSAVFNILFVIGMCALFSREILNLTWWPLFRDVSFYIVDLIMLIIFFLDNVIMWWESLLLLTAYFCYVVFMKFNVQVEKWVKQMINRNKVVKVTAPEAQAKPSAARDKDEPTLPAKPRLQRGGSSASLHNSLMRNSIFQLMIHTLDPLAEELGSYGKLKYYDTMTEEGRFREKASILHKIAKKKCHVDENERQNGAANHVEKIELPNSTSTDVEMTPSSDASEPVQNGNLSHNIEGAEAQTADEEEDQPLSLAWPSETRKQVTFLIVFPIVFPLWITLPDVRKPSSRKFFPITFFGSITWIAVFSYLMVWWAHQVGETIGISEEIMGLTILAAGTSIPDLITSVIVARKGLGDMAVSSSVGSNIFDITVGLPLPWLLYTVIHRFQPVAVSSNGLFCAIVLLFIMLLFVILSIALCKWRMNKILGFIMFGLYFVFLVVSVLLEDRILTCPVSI

Work on `[Cl-].[K+]` [POTASSIUM CHLORIDE] yielded an EC50 of 280 mM.
